Each compound was assayed on aconitine-induced ventricular arrhythmias (assay: aconitine test in rats (antiarrhythmic activity)). Conditions: Rattus norvegicus, iv, read-out: ED50 (dose which increases by 50% the perfusion time of aconitine relative to control animals).
Assay type: in vivo, male rats
Procedure: The principle of the technique rests on the time required for inducing ventricular arrhythmias with aconitine slowly perfused in rats. An antiarrhythmic substance delays the appearance of the arrhythmia, and this delay is proportional to the activity of the substance.
Groups of 5 male rats are used. Individual anaesthetisation is carried out (10% urethane: 1 g/kg/ip) to permit catheterisation of the vein of the penis. The electrocardiogram is recorded. At time T=O, the substance studied is injected as an aqueous solution, in the proportion of 2.5 ml of solution per kg, in the course of 30 seconds. At time T=60 seconds, or 30 seconds after completing the injection, aconitine is perfused at the rate of 20 μg per minute until […] extrasystoles appear. The perfusion time of the aconitine is noted. The results are expressed as an ED50, i.e. the dose of the product under test in mg/kg which increases by 50% the perfusion time of aconitine relative to control animals.

Structure (SMILES)	ED50 [mg/kg]
NC(CCC1CCNCC1)c1ccc2ccccc2c1 (stereo not drawn) [Example 9, 1-(2-Naphthyl)-3-(4-piperidyl)-1-propanamine]	< 0.3

Same assay, conditions: {}

Structure (SMILES)	ED50 (dose which increases by 50% the perfusion time of aconitine relative to control animals) [mg/kg i.v.]
COc1cc2ccnc(C(=O)CCC3CCNCC3)c2cc1OC [Example 3, 1-(6,7-Dimethoxy-1-isoquinolyl)-3-(4-piperidyl)-1-propanone]	2.1
O=C(CCC1CCNCC1)c1cccc2ccccc12 [Example 2, 1-(1-Naphthyl)-3-(4-piperidyl)-1-propanone]	3.8
CC(C)(C)c1nc(C(O)CCC2CCNCC2)c2ccccc2n1 (stereo not drawn) [Example 8, 1[2-(1,1-Dimethylethyl)-4-quinazolinyl]-3-(4-piperidyl)-1-propanol]	1
COc1cc2ccnc(C(O)CCC3CCNCC3)c2cc1OC (stereo not drawn) [Example 7, 1-(6,7-Dimethoxy-1-isoquinolyl)-3-(4-piperidyl)-1-propanol]	2.5
C=C[C@H]1C[N@@]2CC[C@H]1C[C@@H]2[C@@H](O)c1ccnc2ccc(OC)cc12 [Quinidine, reference compound]	7.5
O=C(CCC1CCNCC1)c1ccc2ccccc2c1 [Example 1, 1-(2-Naphthyl)-3-(4-piperidyl)-1-propanone]	4
OC(CCC1CCNCC1)c1nccc2ccccc12 (stereo not drawn) [Example 6, 1-(1-Isoquinolyl)-3-(4-piperidyl)-1-propanol]	2.7
OC(CCC1CCNCC1)c1cccc2ccccc12 (stereo not drawn) [Example 5, 1-(1-Naphthyl)-3-(4-piperidyl)-1-propanol]	1.42
